Assay results reported in patent publication US12629410B2, “Multi-antigenic peptide mimics of gonococcal lipo-oligosaccharide (LOS) epitopes” (priority 2019, dated 2026).
pIC50: −log10 of the molar value. Values joined by “and” are separate entries in the source; they are usually repeats but may differ in a detail not shown here. Equal values may be shown once. Read-outs that look alike come from different tables or passages of the source. Bridges are numbered along the chain shown (N, C = ends).

Key:
[1] = system: mAb 2C7; test: Inhibition ELISA: inhibition of mAb 2C7 binding to immobilized gonococcal LOS
Source text: FIGS. 1A-1B show the structure and characterization of one of the peptide mimics described herein (also referred to as TMCP2). […] The 2C7 mimitope is indicated in shown as the sequence “H2C-CO-GPIPVLDENGLFAPGPC” (SEQ ID NO: 1) Cyclization is maintained through a thioether bond. The reverse peptide mimic core is represented the schematic of the peptide mimic as “Ac-β-Ala-Glu[Glu-OH]2.” The reverse peptide mimic core links to each cyclic peptide through a lysine (K) residue.
In order to compare antigenicity of peptide mimic Core Peptide 2 (monomeric cyclic CP2) and composite TMCP2 compounds with LOS that expresses the 2C7 epitope, inhibition ELISA was performed using mAb 2C7 reacted with the individual compounds to assess inhibition of binding (residual binding) of mAb to LOS by each compound. Microtiter wells were coated with LOS (80 μg/ml in PBS) purified from strain FA1090. Wells were washed and blocked with PBS-0.05% Tween 20. mAb 2C7 (0.04 μg/ml) either alone or containing monomeric cyclic peptide CP2 (1.07 to 1070 μM) or composite TMCP2 (concentrations ranging from […]) was dispended into LOS coated wells. Residual binding of 2C7 mAb was measured with anti-mouse IgG conjugated to alkaline phosphatase. Bound IgG was quantitated using a mouse IgG standard curve and percent inhibition determined compared to reaction mixtures that […].
Attempts to measure mAb 2C7 (7) binding directly to immobilized peptide mimic Core Peptide 2 (abbreviated CP2 in FIG. 1A) and composite TMCP2 by ELISA were not successful. The possibility of poor capture of the peptides by the microtiter wells was considered and therefore used an ELISA to measure inhibition of binding (residual binding) of mAb 2C7 to immobilized gonococcal LOS that had been reacted with increasing concentrations of the peptides (FIG. 1B).

[2] = system: N. gonorrhoeae FA1090; test: Serum bactericidal assay, immune mouse sera plus human complement; format: cell-based; settings: for immune sera showing >50% killing: IgM-depleted sera at 1:30 (3.3%); for immune sera showing <50% survival (>50% killing): intact sera at 3.3% (1:30)
Method: […] Sera from mice diluted 1:1 in PBS was mixed with anti-mouse IgM agarose (Sigma; binding capacity ≥0.4 mg/ml) (1 volume of packed agarose to 1 volume of serum diluted 1:1) in a 2.0 ml microspin filter column (Costar) with a pore size of 0.22 μM) for 15 min at 22° C. Filter-sterilized IgM depleted sera were collected by centrifugation of the mixture at 1000 g for 2 min and heat-inactivated (56° C. for 30 min) to eliminate intrinsic complement activity in mouse serum prior to use in serum bactericidal assays where human complement was substituted.
(§1) Serum bactericidal assays were performed. Bacteria that had been harvested from an overnight culture on chocolate agar plates were repassaged onto fresh chocolate agar and allowed to grow for 6 h at 37° C. in an atmosphere containing 5% CO2. Bacteria were then suspended in HBSS containing 1 mM MgCl2 and 0.15 mM CaCl2) (HBSS++) for use in serum bactericidal assays. Briefly, about 2000 colony forming units (CFUs) of N. gonorrhoeae FA090 were incubated with serial dilutions of immune mouse sera (heat-inactivated and IgM-depleted) in the presence or absence of 20% normal human serum (NHS) as a source of human complement. Serum bactericidal assays with strain MS11 were performed with IgG and IgM depleted NHS (Human complement; Pel-Freez) because this strain is susceptible to killing by NHS. Final volumes of bactericidal reaction mixtures were 150 μl. Aliquots of 25-μl reaction mixtures were plated onto chocolate agar in duplicate at the beginning of the assay (to) and again after incubation at 37° C. for 30 min (t30). Survival was calculated as the number of viable colonies at t30 relative to t0.

[3] = system: N. gonorrhoeae strain 15253; test: Serum bactericidal activity of antisera raised against tetra-MAP candidates; format: cell-based; settings: post-dose 5 IgM-depleted antiserum 1:3, 17% NHS; Sigma MPL adjuvant; compared with TMCP3, TMCP4
Method: See Tables 1A-1K for a description of peptides. Post-dose 5 mouse anti-serum (IgM depleted) was tested against N. gonorrhoeae strain 15253 at a final dilution of 1:3 in the presence of 17% normal human serum (NHS) as the complement source. Y-axis, % killing ([CFU at t0−CFU at t30/CFU at t0]×100).
as §1

[4] = system: LOS purified from N. gonorrhoeae strain 15253; format: in vivo; settings: for mean anti-LOS IgG level: n=13
[5] = system: N. gonorrhoeae MS11; test: Serum bactericidal assay, immune mouse sera plus human complement; format: cell-based; settings: for killing of MS11, all 13 immune sera: 50 μg/dose schedule
Method: Because earlier it was observed that sera from naïve and mice given adjuvant alone manifest bactericidal activity mediated by IgM, mouse IgM was depleted from all sera collected as part of immunization studies. Sera from mice diluted 1:1 in PBS was mixed with anti-mouse IgM agarose (Sigma; binding capacity ≥0.4 mg/ml) (1 volume of packed agarose to 1 volume of serum diluted 1:1) in a 2.0 ml microspin filter column (Costar) with a pore size of 0.22 μM) for 15 min at 22° C. Filter-sterilized IgM depleted sera were collected by centrifugation of the mixture at 1000 g for 2 min and heat-inactivated (56° C. for 30 min) to eliminate intrinsic complement activity in mouse serum prior to use in serum bactericidal assays where human complement was substituted.
as §1

[6] = TMCP2 50 μg + GLA-SE, 3 doses 2 weeks apart, 11 mice

## [(CH2-CO-GPIPVLDENGLFAPGPC)-K-OH]4 ({CH2CO}-GPIPVLDENGLFAPGPCK-OH; thioether N-17; also: tetrameric MAP) [TMCP2]
[1]
  fold lower molar concentration of TMCP2 (compared to CP2) required to achieve 50% inhibition: ~4 fold
[1]; mAb 2C7 0.04 μg/ml, LOS-coated wells, read-out: concentration giving 50% inhibition of mAb 2C7 binding to immobilized 15253 LOS
  pIC50: 4.60
[2]; IgM-depleted post-dose 3 serum, 1:6 (16.7%), 50 μg/dose group
  killing of FA1090, one serum sample: 47%
[2]; 100 μg/dose group
  immune sera showing >50% killing: Three of five
  immune sera showing <50% survival (>50% killing): 3 of 5
[2]; 200 μg/dose group
  immune sera showing >50% killing: three of four
  immune sera showing <50% survival (>50% killing): 3 of 4
[2]; Table 4, TMCP2 200 μg/dose + GLA-SE, immune serum 16.7% (1/6), 16.7% NHS
  Survival in intact immune serum: 0.00% and 6.19%
[2]; final dilution 1:6 (16.7% immune serum), TMCP2 50, 100, 200 μg/dose + GLA-SE
  killing of FA1090 by intact immune sera, all sera: > 50%
[2]; 50 μg/dose group
  immune sera showing <50% survival (>50% killing): Four of 5
[3]
  complement-dependent bactericidal activity of antisera: maximal
[4]; 5 mice, TMCP2 50 μg/dose + GLA-SE at 0, 2, 4 weeks, 2 weeks after third dose
  anti-LOS IgG in vaginal swabs: detected
[4]; BALB/c, n=13 per group, TMCP2 50, 100 or 200 μg/dose + GLA-SE, 3 weeks apart
  anti-LOS IgG levels in intact immune sera, all mice: exceeded 2 μg/ml
[4]; BALB/c, TMCP2 50 μg dose + GLA-SE, 3 doses
  anti-LOS IgG response in 3 of 5 mice: exceeded 10 μg/ml
[4]; BALB/c, TMCP2 50, 100 or 200 μg + GLA-SE, 3 doses 3 weeks apart, two weeks after final boosting
  anti-LOS IgG response, every mouse: exceeded 2 μg/ml
[4]; [6]
  mean anti-LOS level, post-dose 3 immune sera: 2.31 µg/mL
  range of anti-LOS level, post-dose 3 immune sera: 1.33 to 3.59 µg/mL
[4]; TMCP2 50 μg/dose + GLA-SE, 3 doses 3 weeks apart
  mean anti-LOS IgG level: 4.98 µg/mL
[4]; TMCP2 100 μg/dose + GLA-SE, 3 doses 3 weeks apart
  mean anti-LOS IgG level: 4.06 µg/mL
[4]; TMCP2 200 μg/dose + GLA-SE, 3 doses 3 weeks apart
  mean anti-LOS IgG level: 3.8 µg/mL
[4]; pooled post-dose 3 sera, IgM binding to 15253 LOS vs 15253 ΔlgtG LOS
  IgM response to the 2C7 epitope: no apparent IgM response
[4]; tetrapeptides 50 μg/dose plus Sigma MPL adjuvant, BALB/c, FIG. 10
  anti-LOS titers in immunization experiments: higher anti-LOS titers than TMCP4
[5]; immune serum 3.3%
  killing of MS11, all 13 immune sera: > 60%
[5]; immune serum 6.7%
  killing of MS11, all 13 immune sera: > 98%
[5]; 13 sera per group after 3rd dose, 16.7% (1/6 dilution)
  complement-dependent killing of MS11, all sera in each group: > 50%
[5]; Table 6, TMCP2 50 μg/dose + GLA-SE, immune serum 6.7% (1/15), 6.7% IgG/IgM-depleted NHS (Pel-Freez)
  Survival in intact immune serum: 0.00% and 1.52% and 0.47% and 0.93%
